From patent US9232799B2, “N-[(het)arylethyl)] pyrazole(thio)carboxamides and their heterosubstituted analogues” (BAYER INTELLECTUAL PROPERTY GMBH, priority 2010, dated 2016)

What was measured:
[1] = logP by HPLC on reversed-phase column (C 18), EEC Directive 79/831 Annex V.A8; format: physicochemical
Description: In table 1, the logP values were determined in accordance with EEC Directive 79/831 Annex V.A8 by HPLC (High Performance Liquid Chromatography) on a reversed-phase column (C 18), using the method described below: Temperature: 40° C.; […]

Alternaria solani = experiment: In vivo preventive test on Alternaria solani (tomato); details: 500 ppm of active ingredient, evaluated 7 days after inoculation
Excerpt: One day after this treatment, the plants are inoculated with an aqueous spore suspension of Alternaria solani.

Pyrenophora teres = experiment: In vivo preventive test on Pyrenophora teres (barley); details: 500 ppm of active ingredient, evaluated 7-9 days after inoculation
Excerpt: One day after this treatment, the plants are inoculated with an aqueous spore suspension of Pyrenophora teres.

Cochliobolus miyabeanus = experiment: In vivo protective test on Cochliobolus miyabeanus (rice); details: evaluated 4 days after inoculation; for Efficacy (protection): protective, 10 ppm of active ingredient (lowest of 250, 100, 50 and 10 ppm)
aflatoxines production = experiment: microbe, parasite or virus in culture; format: cell-based, Aspergillus parasiticus; details: for inhibition at 50 µM: Aspergillus parasiticus, 168 h, read-out: % Inhibition of Aflatoxin at 50 μM
Fusarium graminearum = experiment: microbe, parasite or virus in culture; format: cell-based; details: for inhibition at 50 µM: Fusarium graminearum, 168 h, read-out: % Inhibition of fungal growth at 50 μM
Septoria tritici = experiment: In vivo preventive test on Septoria tritici (wheat); details: 500 ppm of active ingredient, evaluated 21 days after inoculation
Excerpt: (§1) To test for preventive activity, young plants are sprayed with the preparation of active compound or active compound combination at the stated rate of application.

[2] = system: Blumeria graminis f.sp. hordei; experiment: In vivo preventive test on Blumeria graminis (barley); details: 500 ppm of active ingredient, evaluated 7 days after inoculation
Excerpt: as §1

Leptosphaeria nodorum = experiment: In vivo preventive test on Leptosphaeria nodorum (wheat); details: 500 ppm of active ingredient, evaluated 7-9 days after inoculation
Excerpt: One day after this treatment, the plants are inoculated with an aqueous spore suspension of Leptosphaeria nodorum.

[3] = system: Fusarium nivale (var. majus); experiment: In vivo curative test on Fusarium nivale (wheat); details: 500 ppm of active ingredient, evaluated 5 days after inoculation
Venturia inaequalis = experiment: In vivo preventive test on Venturia inaequalis (apple scab); details: 100 ppm of active ingredient, evaluated 10 days after inoculation
Uromyces appendiculatus = experiment: In vivo preventive test on Uromyces appendiculatus (beans); details: 100 ppm of active ingredient, evaluated 10 days after inoculation
Botrytis cinerea = experiment: In vivo preventive test on Botrytis cinerea (beans); details: preventive, beans, lesion size 2 days after inoculation; for Efficacy / pest or weed control at 100 ppm: 100 ppm of active ingredient
Excerpt: To test for preventive activity, young plants are sprayed with the preparation of active compound. After the spray coating has dried on, 2 small pieces of agar covered with growth of Botrytis cinerea are placed on each leaf.

Sphaerotheca fuliginea = experiment: In vivo preventive test on Sphaerotheca fuliginea (cucumber); details: 500 ppm of active ingredient, evaluated 7 days after inoculation
Excerpt: One day after this treatment, the plants are inoculated with an aqueous spore suspension of Sphaerotheca fuliginea.

[4] = system: Fusarium nivale (var. majus); experiment: In vivo preventive test on Fusarium nivale (wheat); details: 500 ppm of active ingredient, evaluated 5 days after inoculation
Excerpt: as §1

Puccinia triticina = experiment: In vivo preventive test on Puccinia triticina (wheat); details: evaluated 8 days after inoculation; for Efficacy: dose 500 ppm of active ingredient
[5] = dose 250 ppm of active ingredient
[6] = Botrytis cinerea, 48 h, read-out: Efficacy
[7] = dose 10 ppm of active ingredient
[8] = dose 50 ppm of active ingredient
[9] = dose 100 ppm of active ingredient

## CC(Cc1cccc(Cl)c1)NC(=O)c1c(C(F)F)nn(C)c1F (stereo not shown) [Example 50]
[1]
  logP: 3.02
Alternaria solani
  Efficacy: 100%
Pyrenophora teres
  Efficacy: 100%
Cochliobolus miyabeanus; [5]
  Efficacy: 90%
Aflatoxines production
  % Inhibition of Aflatoxin at 50 μM: 100%
Fusarium graminearum
  % Inhibition of fungal growth at 50 μM: 100%

## CC(CN(C(=O)c1c(C(F)F)nn(C)c1F)C1CC1)c1ccccc1 (stereo not shown) [Example 13]
[1]
  logP: 3.17
Alternaria solani
  Efficacy: 95%
Pyrenophora teres
  Efficacy: 100%
Septoria tritici
  Efficacy: 93%
[2]
  Efficacy: 100%
Leptosphaeria nodorum
  Efficacy: 100%
Aflatoxines production
  % Inhibition of Aflatoxin at 50 μM: 100%
Fusarium graminearum
  % Inhibition of fungal growth at 50 μM: 100%
[3]
  Efficacy: 93%

## Cn1nc(C(F)F)c(C(=O)NCCc2ncc(C(F)(F)F)cc2Cl)c1F [Example 187]
[1]
  logP: 2.75
Alternaria solani
  Efficacy: 100%
Pyrenophora teres
  Efficacy: 100%
Venturia inaequalis
  Efficacy: 100%
Septoria tritici
  Efficacy: 100%
[2]
  Efficacy: 94%
Uromyces appendiculatus
  Efficacy: 96%
Botrytis cinerea
  Efficacy: 100%
Cochliobolus miyabeanus; [5]
  Efficacy: 85%
Aflatoxines production
  % Inhibition of Aflatoxin at 50 μM: 100%
Fusarium graminearum
  % Inhibition of fungal growth at 50 μM: 100%

## CC(Cc1ccc(Cl)cc1)N(C(=O)c1c(C(F)F)nn(C)c1F)C1CC1 (stereo not shown) [Example 55]
[1]
  logP: 3.73
Sphaerotheca fuliginea
  Efficacy: 100%
Alternaria solani
  Efficacy: 95%
Pyrenophora teres
  Efficacy: 100%
Venturia inaequalis
  Efficacy: 100%
Septoria tritici
  Efficacy: 100%
[2]
  Efficacy: 100%
[4]
  Efficacy: 100%
Leptosphaeria nodorum
  Efficacy: 95%
Uromyces appendiculatus
  Efficacy: 96%
Botrytis cinerea
  Efficacy: 100%
Aflatoxines production
  % Inhibition of Aflatoxin at 50 μM: 100%
Fusarium graminearum
  % Inhibition of fungal growth at 50 μM: 100%

## CC(Cc1c(Cl)cccc1Cl)N(C(=O)c1c(C(F)F)nn(C)c1F)C1CC1 (stereo not shown) [Example 115]
[1]
  logP: 4.06
Sphaerotheca fuliginea
  Efficacy: 100%
Alternaria solani
  Efficacy: 100%
Pyrenophora teres
  Efficacy: 100%
Venturia inaequalis
  Efficacy: 100%
[2]
  Efficacy: 100%
[4]
  Efficacy: 100%
Leptosphaeria nodorum
  Efficacy: 95%
Uromyces appendiculatus
  Efficacy: 98%
Botrytis cinerea
  Efficacy: 93%
Puccinia triticina
  Efficacy: 90%
Aflatoxines production
  % Inhibition of Aflatoxin at 50 μM: 100%
Fusarium graminearum
  % Inhibition of fungal growth at 50 μM: 100%

## COC(c1ccc(Cl)cc1Cl)C(C)NC(=O)c1c(C(F)F)nn(C)c1F (stereo not shown) [Example 73, N-[1-(2,4-dichlorophenyl)-1-methoxypropan-2-yl]-3-(difluoromethyl)-5-fluoro-1-methyl-1H-pyrazole-4-carboxamide]
[1]
  logP: 3.75
  chromatographic logP: 3.65
Sphaerotheca fuliginea
  Efficacy: 100%
Alternaria solani
  Efficacy: 100%
Pyrenophora teres
  Efficacy: 100%
Venturia inaequalis
  Efficacy: 100%
Septoria tritici
  Efficacy: 100%
[2]
  Efficacy: 100%
[4]
  Efficacy: 88%
Botrytis cinerea; [6]
  pest or weed control at 100 ppm: 99%
Cochliobolus miyabeanus; [7]
  Efficacy: 65%
Cochliobolus miyabeanus; [8]
  Efficacy: 92%
Cochliobolus miyabeanus; [9]
  Efficacy: 97%
Cochliobolus miyabeanus; [5]
  Efficacy: 98%
Cochliobolus miyabeanus
  Efficacy (protection): at least 65%
Aflatoxines production
  inhibition at 50 µM: 100%
Fusarium graminearum
  inhibition at 50 µM: 100%

## CC(Cc1ncc(C(F)(F)F)cc1Cl)N(C(=O)c1c(C(F)F)nn(C)c1F)C1CC1 (stereo not shown) [Example 188, N-{1-[3-chloro-5-(trifluoromethyl)pyridin-2-yl]propan-2-yl}-N-cyclopropyl-3-(difluoromethyl)-5-fluoro-1-methyl-1H-pyrazole-4-carboxamide]
[1]
  chromatographic logP: 3.8
Sphaerotheca fuliginea
  Efficacy: 100%
Alternaria solani
  Efficacy: 100%
Pyrenophora teres
  Efficacy: 100%
Venturia inaequalis
  Efficacy: 100%
Septoria tritici
  Efficacy: 100%
[2]
  Efficacy: 100%
[4]
  Efficacy: 100%
Leptosphaeria nodorum
  Efficacy: 100%
Uromyces appendiculatus
  Efficacy: 98%
Botrytis cinerea; [6]
  pest or weed control at 100 ppm: 98%
Botrytis cinerea; Botrytis cinerea, 48 h, 500 ppm of active ingredient, read-out: Efficacy
  pest or weed control at 500 ppm: > 95%
Puccinia triticina
  Efficacy: 90%
Puccinia triticina; preventive, 500 ppm of active ingredient
  Efficacy (protection): greater than 90%
Cochliobolus miyabeanus; [5]
  Efficacy: 80%
Aflatoxines production
  inhibition at 50 µM: 100%
Fusarium graminearum
  inhibition at 50 µM: 100%

## COC(CNC(=O)c1c(C(F)F)nn(C)c1Cl)c1cc(Cl)cc(Cl)c1 (stereo not shown) [Example 106]
[1]
  logP: 3.55
Pyrenophora teres
  Efficacy: 90%
Septoria tritici
  Efficacy: 71%
Aflatoxines production
  % Inhibition of Aflatoxin at 50 μM: 89%
Fusarium graminearum
  % Inhibition of fungal growth at 50 μM: 69%
[3]
  Efficacy: 93%

## CC(Cc1cc(Cl)ccc1Cl)NC(=O)c1c(C(F)F)nn(C)c1F (stereo not shown) [Example 92]
[1]
  logP: 3.37
Sphaerotheca fuliginea
  Efficacy: 88%
Alternaria solani
  Efficacy: 100%
Pyrenophora teres
  Efficacy: 100%
Cochliobolus miyabeanus; [5]
  Efficacy: 90%
Aflatoxines production
  % Inhibition of Aflatoxin at 50 μM: 100%
Fusarium graminearum
  % Inhibition of fungal growth at 50 μM: 100%

## Cn1nc(C(F)F)c(C(=O)N(CCc2ccccc2)C2CC2)c1F [Example 11]
[1]
  logP: 2.88
Sphaerotheca fuliginea
  Efficacy: 83%
Alternaria solani
  Efficacy: 95%
Pyrenophora teres
  Efficacy: 100%
Septoria tritici
  Efficacy: 100%
[2]
  Efficacy: 100%
Leptosphaeria nodorum
  Efficacy: 95%
Aflatoxines production
  % Inhibition of Aflatoxin at 50 μM: 100%
Fusarium graminearum
  % Inhibition of fungal growth at 50 μM: 100%
[3]
  Efficacy: 100%

## CC(Cc1c(F)cccc1F)N(C(=O)c1c(C(F)F)nn(C)c1F)C1CC1 (stereo not shown) [Example 26]
[1]
  logP: 3.42
Sphaerotheca fuliginea
  Efficacy: 86%
Alternaria solani
  Efficacy: 100%
Pyrenophora teres
  Efficacy: 100%
Septoria tritici
  Efficacy: 100%
[2]
  Efficacy: 100%
Leptosphaeria nodorum
  Efficacy: 95%
Puccinia triticina
  Efficacy: 90%
Aflatoxines production
  % Inhibition of Aflatoxin at 50 μM: 100%
Fusarium graminearum
  % Inhibition of fungal growth at 50 μM: 99%
[3]
  Efficacy: 100%

## CC(Cc1c(F)cccc1Cl)N(C(=O)c1c(C(F)F)nn(C)c1F)C1CC1 (stereo not shown) [Example 120]
[1]
  logP: 3.76
Sphaerotheca fuliginea
  Efficacy: 100%
Alternaria solani
  Efficacy: 100%
Pyrenophora teres
  Efficacy: 100%
Venturia inaequalis
  Efficacy: 100%
Septoria tritici
  Efficacy: 100%
[2]
  Efficacy: 94%
[4]
  Efficacy: 100%
Leptosphaeria nodorum
  Efficacy: 100%
Uromyces appendiculatus
  Efficacy: 100%
Botrytis cinerea
  Efficacy: 94%
Puccinia triticina
  Efficacy: 70%
Aflatoxines production
  % Inhibition of Aflatoxin at 50 μM: 100%
Fusarium graminearum
  % Inhibition of fungal growth at 50 μM: 100%

## COC(c1ccc(Cl)cc1Cl)C(C)NC(=O)c1cn(C)nc1C(F)F (stereo not shown) [1.14 from WO-2008/148570, N-[1-(2,4-dichlorophenyl)-1-methoxypropan-2-yl]-3-(difluoromethyl)-1-methyl-1H-pyrazole-4-carboxamide, reference compound]
Cochliobolus miyabeanus; [7]
  Efficacy: 20%
Cochliobolus miyabeanus; [8]
  Efficacy: 80%
Cochliobolus miyabeanus; [9]
  Efficacy: 92%
Cochliobolus miyabeanus; [5]
  Efficacy: 98%
Cochliobolus miyabeanus
  Efficacy (protection): less than 20%
